Measurements published in PubChem BioAssay AID2305 (GlaxoSmithKline (GSK), 2010).

These compounds were tested on P. falciparum 3D7 growth, pLDH absorbance (assay: P. falciparum 3D7 growth inhibition, dose response, strain 3D7 (AID 2305)).

SMILES | IC50
COc1ccc(CCNCCCCCNCCc2ccc(Cl)cc2)cc1OC | 740 nM
CN1CCN(CCCN(Cc2ccc(-c3ccc(CNCc4ccc5c(c4)OCO5)cc3)cc2)C(=O)CCC2CCCC2)CC1 | 950 nM
CC(C)(C)OC(=O)C1CCCN(Cc2ccc(-c3cccc(-c4nc5ccccc5[nH]4)c3)cc2)C1 (stereo not drawn) | 360 nM
O=C(Nc1cccc(-c2ccc(NCCCN3CCCC3)nc2)c1)c1ccccc1 | 870 nM
CN1CC=C(c2c[nH]c3ccc(OCc4ccccc4)cc23)CC1 | 720 nM
COC(=O)c1cccc(C#CCCOCCCCCCNC[C@H](O)c2cc(Cl)c(N)c(Cl)c2)c1 | 770 nM
Nc1nc2c(ncn2OC[C@H](CO)OCP(=O)(O)O)c(=O)[nH]1 | 340 nM
CNC(=O)C1Cc2c([nH]c3ccc(Br)cc23)C2(CCN(CCc3ccccc3)CC2)N1 (stereo not drawn) | 920 nM
O=C(Nc1ccc(Cl)cc1)Nc1ccc(OCC(O)CN2CCCCC2)cc1 (stereo not drawn) | 1160 nM
O=C(NCc1cccc2ccccc12)C(c1cc2ccccc2o1)N1CCN(C(c2ccccc2)c2ccccc2)CC1 (stereo not drawn) | 670 nM
Oc1ccc2nc(NCCCc3ccccc3)nc(NCCc3ccccc3)c2c1 | 290 nM
Cc1cc(N[C@@H](Cc2ccccc2)C(=O)NCCc2ccccc2)nc(NCCc2ccccc2)n1 | 850 nM
Cc1cccc2[nH]c(-c3ccc(-c4cccc(CN5CCC(CCN6CCCCC6)CC5)c4)s3)nc12 | 140 nM
CN(N=Cc1ccccc1)C(N)=NCCCC#Cc1cccc(CN2CCCC2)c1 | 1790 nM
Cc1c2c(nn1-c1ccccc1)C(c1ccccc1)N(c1ccccc1)C2=O (stereo not drawn) | 150 nM
N#CC(c1cccc(Cl)c1)c1ccc2c(C(F)(F)F)cc(C(F)(F)F)nc2n1 (stereo not drawn) | 730 nM
Cc1cc(NCC(C)C)c2[nH]nc(-c3ccccc3)c2n1 | 740 nM
CC(C)CCNC(=O)C1Cc2c([nH]c3cc(Br)ccc23)C2(CCN(CCc3ccccc3)CC2)N1 (stereo not drawn) | 910 nM
COC(=O)c1cc(C(O)CNC(C)CCCc2ccccc2)ccc1O (stereo not drawn) | 740 nM
Cc1cccc2[nH]c(-c3ccc(-c4cccc(CN5CCN(c6ccncc6)CC5)c4)cc3)nc12 | 120 nM
Fc1ccc2nc(-c3cccc(-c4ccc(CNCCN5CCNCC5)cc4)c3)[nH]c2c1 | 900 nM
O=[N+]([O-])c1ccc(Nc2nc(NN=Cc3cccc(O)c3)nc(N3CCCC3)n2)cc1 | 1080 nM
COc1cc(Nc2ncc3c(C)nc(-c4cccc(Nc5ccc(CN6CCS(=O)(=O)CC6)cc5)c4)n3n2)cc(OC)c1OC | 870 nM
Cc1ccc(C(=O)Nc2ccc(Nc3ccnc4cc(-c5ccccn5)ccc34)cc2O)cc1 | 110 nM
Cc1cc2c(cc1C(F)(F)F)N(C(=O)Nc1cc(OCCN(C)C)cc(C(F)(F)F)c1)CC2 | 710 nM

SMILES | IC50
NC(=NCCCCCCCCN=C(N)Nc1ccc(Cl)cc1)Nc1ccc(Cl)cc1 | 590 nM
O=C(Nc1ccc(N2CCN(c3ncccc3C(F)(F)F)CC2)nc1)c1cccs1 | 1190 nM
COC(=O)c1cccc(NC(=O)NC2CCN(c3ccnc(Nc4ccc(F)cc4)n3)C2)c1 (stereo not drawn) | 500 nM
CC(C)NCc1ccc(-c2ccc(-c3nc4ccc(C(F)(F)F)cc4[nH]3)s2)cc1 | 180 nM
COc1ccc(-c2ccccc2CNc2nc(NCCc3ccc(O)cc3)nc(N3CCNCC3)n2)cc1 | 1080 nM
CC(=O)Oc1c(Cl)c(C)nc(C)c1-c1ccc(Oc2ccc(Cl)cc2)cc1 | 30 nM
c1cc(Nc2nc(-c3ccc(-c4csc(Nc5ccncc5)n4)cc3)cs2)ccn1 | 120 nM
CCNc1cc(C)nc(Nc2ccc(C)cc2)n1 | 730 nM
COc1ccc(C(=O)C2CCN(CCCCNC(=O)c3ccc(NC(=O)c4ccc(Cl)cc4)cc3)CC2)c(OC)c1 | 770 nM
CN(C)c1ccc(-c2ccc(C(=O)NC3CCN(Cc4ccccc4)CC3)s2)cc1 | 1050 nM
NC(=O)c1cccc(C(=O)Nc2cccc(-c3cccc(-c4nc5ccc(F)cc5[nH]4)c3)c2)c1 | 250 nM
CCC(C)NC(=O)CN1CN(c2ccccc2)C2(CCN(C(=O)c3ccc(C(C)(C)C)cc3)CC2)C1=O (stereo not drawn) | 130 nM
Cc1ccc(S(=O)(=O)N(C)c2ccccc2C(=O)Nc2ccccc2Oc2ccccc2)cc1 | 920 nM
Cc1nc(N)nc(N)c1OCc1cccc2ccccc12 | 70 nM
CCOCn1c(-c2ccccc2)cc2c3c(N)nc(N)nc3ccc21 | 190 nM
CN1CCN(Cc2ccc(-c3ccc4c(Nc5cc(O)c(Cl)cc5F)ccnc4c3)o2)CC1 | 110 nM
CS(=O)(=O)Nc1cccc(-c2cnc3[nH]cc(-c4cc(N)cc(C(=O)O)c4)c3c2)c1 | 1080 nM
CN1CCC(Oc2cc(CN3CC[C@H](NC(=O)c4ccc(Cl)c(Cl)c4)C3)ccc2I)C1 (stereo partly drawn) | 840 nM
C=CCN1Cc2c(O)cccc2C(c2ccc(O)c(O)c2)C1 (stereo not drawn) | 670 nM
O=C(/C=C/c1ccc(Cl)c(Cl)c1)NCCCCCN1CCCN(C(=O)Nc2cc(Cl)nc(Cl)c2)CC1 | 790 nM
COc1cncc(/C=C/c2cncc(C(=O)NCCc3ccc(Cl)cc3Cl)c2)c1 | 880 nM
Cc1nnsc1C(=O)Nc1cccc(-c2ccc(-c3nc4c(C)cccc4[nH]3)s2)c1 | 1120 nM
c1cc(CNc2ncc(-c3ccsc3)c(-c3nccs3)n2)ccn1 | 360 nM
O=C(Nc1cccc(-c2cccc(CN3CCCC3)c2)c1)c1cccc(Cl)c1 | 1180 nM
Cc1nc(C)c(-c2ccc(Oc3ccc(OC(F)(F)F)cc3)cc2)c(OC(=O)N(CCNC(C)C)C(C)C)c1Br | 170 nM

SMILES | IC50
CC(CN1CCN(C)CC1)C(=O)Nc1cccc(-c2cccc(-c3nc4ccc(F)cc4[nH]3)c2)c1 (stereo not drawn) | 270 nM
O=C(Nc1nccs1)c1cn(-c2ccccc2)nc1-c1ccc(Cl)s1 | 970 nM
C#CCOc1ccc(N2C(N)=NC(N)=NC2(C)C)cc1 | 70 nM
c1cncc(CCNCc2cccc(-c3ccc(-c4nc5ccccc5[nH]4)s3)c2)c1 | 200 nM
CCc1cc(C(=O)c2cccc(C)c2)c(NC(=O)CN2CCN(C(=O)c3ccco3)CC2)s1 | 450 nM
CN(C)c1ccc(-c2csc(C(=O)NCC3CCN(CC4CCCCC4)C3)c2)cc1 (stereo not drawn) | 1140 nM
COc1ccc(S(=O)(=O)N2CCC(NS(=O)(=O)c3ccc(F)cc3)CC2)cc1 | 1330 nM
COc1cc(Cc2cnc(N)nc2N)c2c(c1OC)OC(C)(C)C=C2 | 1190 nM
CN1CCN(c2ccnc3ccc(NC(=O)Nc4ccccc4Br)cc23)CC1 | 370 nM
CC(=O)N1N=C(c2ccc(Cl)cc2)Sc2c1nc(C1CCCCC1)n2C(C)=O | 250 nM
Nc1cccc(CNCc2ccc(-c3ccc(-c4nc5ccccc5[nH]4)s3)cc2)c1 | 570 nM
CCc1cc(=O)[nH]c(-n2nc(C)cc2NC(=O)CC(c2ccccc2)c2ccccc2)n1 | 960 nM
CN(C)C(CNC(=O)c1cc(-c2ccncc2)c(-c2ccc(NC(=O)Nc3cccc(Cl)c3)cc2)o1)c1ccccc1 (stereo not drawn) | 180 nM
CN(C)CCCOC(=O)c1cc2cc(-c3ccccc3)ccc2n1S(=O)(=O)Cc1ccccc1 | 360 nM
CC(C)Nc1nc(NCCc2cnc[nH]2)nc(Nc2ccc(Oc3ccccc3)cc2)n1 | 890 nM
CC(=O)Nc1cccc(NC(=O)CSc2ccc(-c3nc4ccccc4[nH]3)cn2)c1 | 560 nM
CC(Cc1ccc(OCCCCOc2ccccc2)cc1)NCCCN1CCOCC1 (stereo not drawn) | 720 nM
CCOc1c(Br)cc(Br)cc1CNCCCCNc1nc2ccccc2[nH]1 | 390 nM
COc1cccc(CN2CCC(N3CCc4cc(NC(=O)c5cc(C)on5)ccc43)C2)c1OC (stereo not drawn) | 950 nM
Cc1cc(C(=O)CN2C(=O)NC(C)(c3cccc4ccccc34)C2=O)c(C)n1Cc1ccco1 (stereo not drawn) | 630 nM
NC(=NCc1ccccc1)Nc1nc(-c2ccc(OCCCn3ccnc3)cc2)cs1 | 250 nM
Cn1ccnc1CNC(=O)c1ccc(-c2cccc(-c3nc4ccc(C(F)(F)F)cc4[nH]3)c2)cc1 | 720 nM
CC(C)c1ccc(NC(=O)NC2CCN(CCCCCNC(=O)/C=C/c3ccc(Cl)c(Cl)c3)CC2)cc1 | 670 nM
CN1CCC(NCc2cccc(-c3ccc(S(=O)(=O)NCc4ccccc4)c(F)c3)c2)CC1 | 330 nM
O=[N+]([O-])c1cccc(C=NNc2ccnc3ccc(C(F)(F)F)cc23)c1 | 1090 nM

SMILES | IC50
CCNc1cc(C(=O)N[C@@H](Cc2ccccc2)[C@H](O)CNCCc2cccc(C(F)(F)F)c2)cc(N2CCCC2=O)c1 | 880 nM
CCCCCCCCNCc1c(O)ccc2ccccc12 | 740 nM
Cc1[nH]c2ccccc2c1C1CCN(CC2CCC(NC(=O)/C=C/c3ccc(Cl)c(Cl)c3)CC2)CC1 (stereo not drawn) | 820 nM
COC(=O)c1ccc2nc(-c3ccc(/C=C/C(=O)NCc4ccc(Cl)c(Cl)c4)cc3)[nH]c2c1 | 1340 nM
COc1cc(F)c2ncc(Cl)c(C(O)CN3CCC(NC(=O)c4ccc5c(c4)NC(=O)CS5)CC3)c2c1 (stereo not drawn) | 680 nM
COc1cc(NC(=O)Nc2cccc3ccccc23)c(OC)cc1Cl | 480 nM
Cc1noc(C)c1-c1cccc(CNCc2ccc(-c3ccc(-c4nc5ccc(F)cc5[nH]4)s3)cc2)c1 | 420 nM
O=C(Nc1ccc(-c2ccc(-c3nc4ccccc4[nH]3)s2)cc1)Nc1ccc(F)c(F)c1F | 190 nM
Cc1[nH]c(C)c(-c2ccc(Sc3ccc(Cl)cc3)cc2)c(=O)c1Br | 140 nM
CNCCCn1c(N(C)C)nc2cc(-n3cnc4cc(-c5ccc(Cl)cc5)sc4c3=O)ccc21 | 1140 nM
C=C(F)c1sc(CNCCCNc2nc3ccccc3[nH]2)c(C)c1Br | 370 nM
O=c1[nH]nc(-c2ccc(N3CCCC3)c([N+](=O)[O-])c2)c2ccccc12 | 630 nM
CCC[C@@H](/C=N/N(C)C(=O)OC(C)(C)C)NC(=O)[C@H](CC(C)C)NC(=O)c1cc2cccc(OC)c2o1 | 1080 nM
Clc1ccc2c(NCc3ccccn3)ccnc2c1 | 660 nM
O=C(N[C@@H](Cc1ccccc1)[C@H](O)CNCCC(F)(F)F)c1cccc(CCC2CC2)c1 | 1020 nM
Cc1nc2ccc3ccc(CNc4ccc(C(=O)N[C@@H](CCC(=O)O)C(=O)O)cc4)cc3c2c(=O)[nH]1 | 180 nM
O=C(C(=O)c1ccc(Nc2ccnc3cc(-c4ccccn4)ccc23)cc1)c1ccccc1 | 970 nM
CN1CCN(Cc2ccc(-c3ccc4c(Nc5cc(O)c(F)cc5Cl)ccnc4c3)o2)CC1 | 130 nM
CCc1cn2c3c(cc(C(=O)N[C@@H](Cc4cc(F)cc(F)c4)[C@H](O)CNC4CC4)cc13)N(C)S(=O)(=O)CC2 | 120 nM
CCC(NC(=O)c1ccccc1NC(=O)c1ccc(C)cc1)C(=O)OC (stereo not drawn) | 760 nM
CCOC(=O)C1=C(C)NC(Cn2ccnc2)=C(C(=O)OCC)C1c1ccc(C(C)(C)C)cc1 (stereo not drawn) | 810 nM
Nc1ccc2[nH]cc(C3CCN(CC4CCN(C(=O)/C=C/c5ccc(Cl)c(Cl)c5)CC4)CC3)c2n1 | 700 nM
Cc1cccc(-c2ccc(CNC3CCN(CC4Cn5c(=O)ccc6ccc(F)c4c65)CC3)cn2)c1 (stereo not drawn) | 1530 nM
